Reference: patent publication US8618151B2, “Inhibitors of HCV NS5A” (Presidio Pharmaceuticals, Inc., priority 2008, dated 2013)

These compounds were tested on HCV genotype 1b replicon (assay: HCV replicon assay (1b_Huh-Luc/Neo-ET cell line, luciferase readout)). Conditions: Hepatitis C virus, Huh-7, 72 h, read-out: Inhibition of HCV genotype 1b.
Type: cell-based
Summary of the method: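 1b_Huh-Luc/Neo-ET Huh 7 cells carrying a bicistronic genotype 1b replicon; compounds added in triplicate the day after plating, 72 h incubation, then Bright-Glo luciferase read-out. Signal expressed as % of control; EC50 from curve fit, repeated several times.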
COC(=O)N[C@H](C(=O)N1CCC[C@H]1c1ncc(-c2cnc3cc(-c4ccc5nc([C@@H]6CCCN6C(=O)[C@@H](NC(=O)OC)C(C)C)[nH]c5c4)ccc3c2)[nH]1)C(C)C [compound 187] showed an EC50 of under 1 nM.
COC(=O)N[C@H](C(=O)N1CCC[C@H]1c1ncc(-c2ccc3cc(-c4ccc5nc([C@@H]6CCCN6C(=O)[C@H](NC(=O)OC)c6ccccc6)[nH]c5n4)ccc3c2)[nH]1)C(C)C [compound 199] showed an EC50 of under 1 nM.
Compound COC(=O)N[C@H](C(=O)N1CCC[C@H]1c1ncc(-c2ccc3cc(-c4ccc5nc([C@@H]6CCCN6C(=O)[C@@H](NC(=O)OC)C(C)C)[nH]c5c4)ccc3n2)[nH]1)C(C)C [compound 209] has an EC50 of under 1 nM.
With COC(=O)N[C@H](C(=O)N1CCC[C@H]1c1ncc(-c2ccc(-c3ccc4cc(-c5cnc([C@@H]6CCCN6C(=O)[C@H](NC(=O)OC(C)(C)C)c6ccccc6)[nH]5)ccc4n3)c(F)c2)[nH]1)C1CCOCC1 [compound 136] the EC50 was under 1 nM.
COC(=O)N[C@H](C(=O)N1CCC[C@H]1c1nc(-c2ccc3[nH]c(-c4ccc(-c5cnc([C@@H]6CCCN6C(=O)[C@@H](NC(=O)OC)C(C)C)[nH]5)cc4)cc(=O)c3c2)c[nH]1)C(C)C [compound 76] showed an EC50 of under 1 nM.
With COC(=O)N[C@H](C(=O)N1C[C@H](O)C[C@H]1c1ncc(-c2ccc(-c3ccc4cc(-c5cnc([C@@H]6CCCN6C(=O)[C@H](NC(=O)OC6CCOCC6)c6ccccc6)[nH]5)ccc4n3)cc2)[nH]1)C(C)C [compound 149] the EC50 was under 1 nM.
COC(=O)N[C@H](C(=O)N1CCC[C@H]1c1nc(-c2ccc3cc(-c4ccc(-c5cnc([C@@H]6CCCN6C(=O)[C@H](NC(=O)OC)c6ccccc6)[nH]5)cc4)ccc3c2)c[nH]1)C1CCOCC1 [compound 99] was tested, and the EC50 was under 1 nM.
In the case of COC(=O)N[C@@H](C)C(=O)N1CCC[C@H]1c1ncc(-c2ccc(-c3ccc4cc(-c5c[nH]c([C@@H]6CCCN6C(=O)[C@@H](NC(=O)OC)C(C)C)n5)ccc4n3)cc2)[nH]1 [compound 44], the EC50 is reported as under 1 nM.
For COC(=O)N[C@H](C(=O)N1CCC[C@H]1c1ncc(-c2ccc(-c3ccc4cc(-c5cnc([C@@H]6CCCN6C(=O)[C@@H](NC(=O)OC)C6CC6)[nH]5)ccc4c3)cc2)[nH]1)C1CC1 [compound 143], the EC50 was under 1 nM.
COC(=O)N[C@H](C(=O)N1CCC[C@H]1c1nc(-c2ccc3cc(-c4ccc(-c5cnc([C@@H]6CCCN6C(=O)[C@H](NC(=O)OC)c6ccsc6)[nH]5)cc4)ccc3c2)c[nH]1)C1CCOCC1 [compound 110] was tested, and the EC50 was under 1 nM.
With CCNC(=O)N[C@@H](C(=O)N1CCC[C@H]1c1nc(-c2ccc3cc(-c4ccc(-c5cnc([C@@H]6CCCN6C(=O)[C@@H](NC(=O)OC)C(C)C)[nH]5)cc4)ccc3c2)c[nH]1)c1ccccc1 [compound 28] the EC50 was under 1 nM.
Compound COC(=O)N[C@@H](C(=O)N1CCC[C@H]1c1ncc(-c2ccc(-c3nc4ccc(-c5cnc([C@@H]6CCCN6C(=O)[C@H](NC(=O)OC)c6ccccc6)[nH]5)cc4s3)cc2)[nH]1)c1ccccc1 [compound 230] has an EC50 of under 1 nM.
Work on COC(=O)N[C@H](C(=O)N1CCC[C@H]1c1nc(-c2ccc3nc(-c4ccc(-c5cnc([C@@H]6CCCN6C(=O)[C@@H](NC(=O)OC)C6CCOCC6)[nH]5)cc4F)ccc3c2)c[nH]1)C1CCOCC1 [compound 98] yielded an EC50 of under 1 nM.
COC(=O)N[C@H](C(=O)N1CCC[C@H]1c1nc2ccc(-c3ccc4nc(-c5cnc([C@@H]6CCCN6C(=O)[C@@H](NC(=O)OC)C6CCOCC6)[nH]5)ccc4c3)cc2[nH]1)C(C)C [compound 211] gave an EC50 of under 1 nM.
CNC(=O)N[C@@H](C(=O)N1CCC[C@H]1c1ncc(-c2ccc(-c3nc4ccc(-c5cnc([C@@H]6CCCN6C(=O)[C@@H](NC(=O)OC)C(C)C)[nH]5)cc4o3)cc2)[nH]1)c1ccccc1 [compound 256] showed an EC50 of under 1 nM.
Work on COC(=O)N[C@H](C(=O)N1CCC[C@H]1c1ncc(-c2ccc(-c3cc4ccc(-c5c[nH]c([C@@H]6CCCN6C(=O)[C@H](NC(=O)OC)c6ccccc6)n5)cc4cn3)cc2)[nH]1)C1CCOCC1 [compound 101] yielded an EC50 of under 1 nM.
Work on COC(=O)N[C@H](C(=O)N1CCC[C@H]1c1ncc(-c2ccc3cc(-c4ccc5c(c4)CCc4nc([C@@H]6CCCN6C(=O)[C@@H](NC(=O)OC)C(C)C)[nH]c4-5)ncc3c2)[nH]1)C(C)C [compound 292] yielded an EC50 of under 1 nM.
Compound COC(=O)N[C@@H](C(=O)N1CCC[C@H]1c1nc(-c2ccc3c(c2)CCN(c2c(F)cc(-c4cnc([C@@H]5CCCN5C(=O)[C@H](NC(=O)OC)c5ccccc5)[nH]4)cc2F)C3)c[nH]1)c1ccccc1 [compound 270] has an EC50 of under 1 nM.
Work on COC(=O)N[C@H](C(=O)N1CCC[C@H]1c1nc(-c2ccc3nc(-c4ccc(-c5cnc([C@@H]6CCCN6C(=O)[C@@H](NC(=O)OC)C(C)C)[nH]5)cc4F)ccc3c2)c[nH]1)C(C)C [compound 96] yielded an EC50 of under 1 nM.
Compound COC(=O)N[C@H](C(=O)N1CCC[C@H]1c1ncc(-c2ccc(-c3cnc4ccc(-c5cnc([C@@H]6CCCN6C(=O)[C@@H](NC(=O)OC)C(C)C)[nH]5)cc4n3)cc2)[nH]1)C(C)C [compound 12] has an EC50 of 1 to 9.9 nM.
COC(=O)N[C@H](C(=O)N1CCC[C@H]1c1ncc(-c2ccc(-c3ccc4cc(-c5cnc([C@@H]6COCCN6C(=O)[C@H](NC(=O)OC)c6ccccc6)[nH]5)ccc4c3)cc2)[nH]1)C(C)C [compound 132] showed an EC50 of under 1 nM.
With COC(=O)N[C@H](C(=O)N1CCC[C@H]1c1ncc(-c2ccc3cc(-c4ccc5nc([C@@H]6CCCN6C(=O)[C@@H](NC(=O)OC)C6CCCC6)[nH]c5c4)ccc3c2)[nH]1)C1CCCC1 [compound 218] the EC50 was under 1 nM.
With COC(=O)N[C@H](C(=O)N1CCC[C@H]1c1ncc(-c2ccc3nc(-c4ccc(-c5cnc([C@@H]6CCCN6C(=O)[C@H](NC(=O)OC(C)(C)C)c6ccccc6)[nH]5)cc4)oc3c2)[nH]1)C(C)C [compound 254] the EC50 was under 1 nM.
COC(=O)N[C@H](C(=O)N1CCC[C@H]1c1ncc(-c2ccc(-c3ccc4cc(-c5c[nH]c([C@@H]6CCCN6C(=O)[C@@H](NC(=O)OC)C6CCOCC6)n5)ccc4c3)c(F)c2)[nH]1)C(C)C [compound 68] showed an EC50 of under 1 nM.
COC(=O)N[C@H](C(=O)N1CCC[C@H]1c1ncc(-c2ccc(-c3nc4cc(-c5cnc([C@@H]6CCCN6C(=O)[C@@H](NC(=O)OC)C(C)C)[nH]5)ccc4o3)cc2)[nH]1)C(C)C [compound 236] was tested, and the EC50 was under 1 nM.
COC(=O)N[C@H](C(=O)N1CCC[C@H]1c1nc(-c2ccc3nc(-c4ccc(-c5cnc([C@@H]6CCCN6C(=O)[C@@H](NC(=O)OC)C(C)C)[nH]5)cc4)cnc3c2)c[nH]1)C(C)C [compound 11] gave an EC50 of under 1 nM.
Work on COC(=O)N[C@H](C(=O)N1CCC[C@H]1c1nc2ccc(-c3ccc4cc(-c5ccc6nc([C@@H]7CCCN7C(=O)[C@@H](NC(=O)OC)C7CCOCC7)[nH]c6c5)ccc4c3)cc2[nH]1)C1CCOCC1 [compound 279] yielded an EC50 of under 1 nM.
In the case of COC(=O)N[C@H](C(=O)N1CCC[C@H]1c1ncc(-c2ccc(-c3cc4ccc(-c5cnc([C@@H]6CCCN6C(=O)[C@@H](NC(=O)OC)C6CCOCC6)[nH]5)cc4cn3)cc2F)[nH]1)C(C)C [compound 128], the EC50 is reported as under 1 nM.
COC(=O)N[C@H](C(=O)N1CCC[C@H]1c1nc2c([nH]1)-c1ccc(-c3cc4ccc(-c5cnc([C@@H]6CCCN6C(=O)[C@H](NC(=O)OC)c6ccccc6)[nH]5)cc4cn3)cc1CC2)C(C)C [compound 294] showed an EC50 of under 1 nM.
COC(=O)N[C@H](C(=O)N1CCC[C@H]1c1ncc(-c2ccc(-c3ccc4cc(-c5c[nH]c([C@@H]6CCCN6C(=O)[C@H](NC(=O)OC)c6ccccc6)n5)cnc4c3)cn2)[nH]1)C(C)C [compound 94] showed an EC50 of under 1 nM.
